Structures can show the parent of a compound that is named as a salt. Where two headings read alike, the source gives them in different places.
Target: farnesyl transferase (Homo sapiens, UniProt P49354+P49356)
Assay: Farnesyl transferase inhibition, [3H]-farnesylation of biotinylated K-ras C-terminal peptide (SPA assay)
Format: biochemical
Settings: 60 min at 37° C., mean of two IC50 values
Description: The farnesyl transferase activity was measured by the amount farnesylated of K-ras substrate or of substrate derived from the peptide corresponding to its C-terminal part, the farnesyl group being introduced by farnesyl pyrophosphate (FPP).
It was then brought into contact with PVT-streptavidin (Amersham)® beads and was quantified by proximity scintillation (SPA assay) between the tritium and the PVT beads, by virtue of the streptavidin/biotin interaction.
Experimentally, farnesyl transferase purified according to the appended protocol was diluted, for this assay, to a concentration such that a consumption of substrates of less than 30% was obtained.
The reaction, carried out in Optiplates 96° microtitration plates, was initiated by the enzyme and lasted sixty minutes at 37° C. It was stopped by addition of 150 μl of mixture of a blocking buffer at pH 4 composed of 0.2M H3 PO4, 1.5 mM MgCl2, 0.5% (w/v) BSA, 0.05% (w/v) sodium azide containing 200 μg of PVT-streptavidin beads.
After slow agitation for thirty minutes (in order to remove the chemiluminescence), the plates were read as [^3 H]CPM in a Top Count® (Packard) scintillation counter for microplates, where they were converted into [^3 H]DPM from a range of coloured agent attenuating the scintillation (quenching).
The percentages of inhibition were calculated with respect to an inhibitor-free control after subtraction from all the values of that of a blank which only contained the substrates and the buffer.
The IC50 values were calculated or measured, from the inhibitions obtained at nine different concentrations, with Enzfitter® or Grafit® software. The IC50 values which appear in the results are the mean of measurements and calculations of two IC50 values.

[1] = K-Ras substrate, read-out: In vitro inhibitory activity (K-Ras) IC50

| SMILES | IC50 [1] | IC50 (In vitro inhibitory activity (K-Ras) IC50, K-Ras substrate) |
| --- | --- | --- |
| C=C(C(=O)N1C[C@@H]2[C@]3(c4ccc5c(c4)OCCO5)CC[C@@H](c4ccccc43)[C@]2(C(=O)NCc2cccs2)C1)c1ccccc1OC (relative stereo) [Example 36, (3aRS,4SR,9SR,9aRS)-9-(2,3-dihydro-1,4-benzodioxin-6-yl)-4,9-ethano-2-[2-(2-methoxyphenyl)propenoyl]-2,3,3a,4,9,9a-hexahydro-1H-benzo[f]isoindole-3a-N-(2-thienylmethyl)carboxamide] | 0.12 µM |  |
| COc1ccccc1CC(=O)N1C[C@H]2[C@@]3(c4ccc(SC)cc4)CC[C@H](c4ccccc43)[C@@]2(C(=O)O)C1 (relative stereo) [Example 7, (3aRS,4SR,9SR,9aRS)-4,9-ethano-2-[(2-methoxyphenyl)acetyl]-9-(4-methylsulphanylphenyl)-2,3,3a,4,9,9a-hexahydro-1H-benzo[f]isoindole-3a-carboxylic Acid] | 0.05 µM |  |
| C=C(C(=O)N1C[C@H]2[C@@]3(c4ccc(C)cc4)CC[C@H](c4ccccc43)[C@@]2(C(=O)NN(C)c2ccccc2)C1)c1ccccc1OC (relative stereo) [Example 28, (3aRS,4SR,9SR,9aRS)-4,9-ethano-2-[2-(2-methoxyphenyl)propenoyl]-9-(4-methylphenyl)-2,3,3a,4,9,9a-hexahydro-1H-benzo[f]isoindole-3a-N'-methyl-N'-phenylcarbohydrazide] | 0.054 µM |  |
| C=C(C(=O)N1C[C@H]2[C@@]3(c4ccc(OC)cc4)CC[C@H](c4ccccc43)[C@@]2(C(=O)NNc2cccnc2)C1)c1ccccc1OC (relative stereo) [Example 79, (3aRS,4SR,9SR,9aRS)-4,9-ethano-9-(4-methoxyphenyl)-2-[2-(2-methoxyphenyl)propenoyl]-2,3,3a,4,9,9a-hexahydro-1H-benzo[f]isoindole-3a-N'-(3-pyridyl)carbohydrazide] | 0.045 µM |  |
| C=C(C(=O)N1C[C@@H]2[C@]3(c4ccc(C(F)(F)F)cc4)CC[C@@H](c4ccccc43)[C@]2(C(=O)NNC(=O)c2ccccc2)C1)c1ccccc1OC (relative stereo) [Example 43, (3aRS,4SR,9SR,9aRS)-4,9-ethano-2-[2-(2-methoxyphenyl)propenoyl]-9-[4-(trifluoromethyl)phenyl]-2,3,3a,4,9,9a-hexahydro-1H-benzo[f]isoindole-3a-N'-benzoylcarbohydrazide] | 0.59 µM |  |
| C=C(C(=O)N1C[C@H]2[C@@]3(c4cccc(N(C)C)c4)CC[C@H](c4ccccc43)[C@@]2(C(=O)O)C1)c1ccccc1OC (relative stereo) [Example 92, (3aRS,4SR,9SR,9aRS)-9-(3-N,N-dimethylaminophenyl)-4,9-ethano-2-[2-(2-methoxyphenyl)propenoyl]-2,3,3a,4,9,9a-hexahydro-1H-benzo[f]isoindole-3a-carboxylic Acid] | 0.028 µM |  |
| C=C(C(=O)N1C[C@@H]2[C@]3(c4ccc(CC)cc4)CC[C@@H](c4ccccc43)[C@]2(C(=O)OC)C1)c1ccccc1OC (racemic) [Example 59, methyl (3aRS,4SR,9SR,9aRS)-4,9-ethano-9-(4-ethylphenyl)-2-[2-(2-methoxyphenyl)propenoyl]-2,3,3a,4,9,9a-hexahydro-1H-benzo[f]isoindole-3a-carboxylate] | 0.408 µM |  |
| C=C(C(=O)N1C[C@@H]2[C@]3(c4cccc(N)c4)CC[C@@H](c4ccccc43)[C@]2(C(=O)OC)C1)c1ccccc1OC (racemic) [Example 93, methyl (3aRS,4SR,9SR,9aRS)-9-(3-aminophenyl)-4,9-ethano-2-[2-(2-methoxyphenyl)propenoyl]-2,3,3a,4,9,9a-hexahydro-1H-benzo[f]isoindole-3a-carboxylate hydrochloride] | 0.786 µM |  |
| C=C(C(=O)N1C[C@H]2[C@@]3(c4ccc(OC)cc4)CC[C@H](c4ccccc43)[C@@]2(C(=O)O)C1)c1ccccc1OC (single isomer, unassigned) [Example 75, Dextrorotatory Enantiomer of (3aRS,4SR,9SR,9aRS)-4,9-ethano-9-(4-methoxyphenyl)-2-[2-(2-methoxyphenyl)propenoyl]-2,3,3a,4,9,9a-hexahydro-1H-benzo[f]isoindole-3a-carboxylic Acid] | 0.008 µM |  |
| C=C(C(=O)N1C[C@H]2[C@@]3(c4ccc(C)cc4)CC[C@H](c4ccccc43)[C@@]2(C(=O)NNc2ccc(OC)cc2)C1)c1ccccc1OC (relative stereo) [Example 27, (3aRS,4SR,9SR,9aRS)-4,9-ethano-2-[2-(2-methoxyphenyl)propenoyl]-9-(4-methylphenyl)-2,3,3a,4,9,9a-hexahydro-1H-benzo[f]isoindole-3a-N'-(4-methoxyphenyl)carbohydrazide] | 0.009 µM |  |
| COc1ccccc1CC(=O)N1C[C@H]2[C@@]3(c4ccc(C)cc4)CC[C@H](c4ccccc43)[C@@]2(C(=O)O)C1 (single isomer, unassigned) [Example 30, dextrorotatory enantiomer of (3aRS,4SR,9SR,9aRS)-4,9-ethano-2-[2-(2-methoxyphenyl)acetyl]-9-(4-methylphenyl)-2,3,3a,4,9,9a-hexahydro-1H-benzo[f]isoindole-3a-carboxylic Acid] |  | 0.074 µM |
| C=C(C(=O)N1C[C@@H]2[C@]3(c4ccc(F)cc4)CC[C@@H](c4ccccc43)[C@]2(C(=O)O)C1)c1ccccc1OC (racemic) [Example 65, (3aRS,4SR,9SR,9aRS)-4,9-ethano-9-(4-fluorophenyl)-2-[2-(2-methoxyphenyl)propenoyl]-2,3,3a,4,9,9a-hexahydro-1H-benzo[f]isoindole-3a-carboxylic acid] | 0.04 µM |  |
| C=C(C(=O)N1CC2C3(c4ccc(OC)cc4)CCC(c4ccccc43)C2(C(=O)NC(C(=O)O)c2ccccc2)C1)c1ccccc1OC (stereo not drawn) [Example 81, (RS)- and (SR)-2-{(3aRS,4SR,9SR,9aRS)-4,9-ethano-9-(4-methoxyphenyl)-2-[2-(2-methoxyphenyl)propenoyl]-2,3,3a,4,9,9a-hexahydro-1H-benzo[f]isoindole-3a-carbonylamino}phenylacetic Acids] | 0.018 µM |  |
| C=C(C(=O)N1C[C@H]2[C@@]3(c4ccc(C)cc4)CC[C@H](c4ccccc43)[C@@]2(C(=O)NCc2cccnc2)C1)c1ccccc1OC (single isomer, unassigned) [Example 18, Dextrorotatory Enantiomer of (3aRS,4SR,9SR,9aRS)-4,9-ethano-2-[2-(2-methoxyphenyl)propenoyl]-9-(4-methylphenyl)-2,3,3a,4,9,9a-hexahydro-1H-benzo[f]isoindole-3a-N-(3-pyridylmethyl)carboxamide] | 0.05 µM |  |
| C=C(C(=O)N1C[C@@H]2[C@]3(c4ccc5ccccc5c4)CC[C@@H](c4ccccc43)[C@]2(C(=O)OC)C1)c1ccccc1OC (racemic) [Example 45, methyl (3aRS,4SR,9SR,9aRS)-4,9-ethano-2-[2-(2-methoxyphenyl)propenoyl]-9-(2-naphthyl)-2,3,3a,4,9,9a-hexahydro-1H-benzo[f]isoindole-3a-carboxylate] | 0.181 µM |  |
| COc1ccc([C@]23CC[C@H](c4ccccc42)[C@@]2(C(=O)O)CN(C(=O)Cc4ccccc4OC)C[C@@H]32)cc1 (relative stereo) [Example 6, (3aRS,4SR,9SR,9aRS)-4,9-ethano-9-(4-methoxyphenyl)-2-[(2-methoxyphenyl)acetyl]-2,3,3a,4,9,9a-hexahydro-1H-benzo[f]isoindole-3a-carboxylic Acid] | 0.0575 µM |  |
| C=C(C(=O)N1C[C@@H]2[C@]3(c4ccc(C(F)(F)F)cc4)CC[C@@H](c4ccccc43)[C@]2(C(=O)OC)C1)c1ccccc1OC (racemic) [Example 39, methyl (3aRS,4SR,9SR,9aRS)-4,9-ethano-2-[2-(2-methoxyphenyl)propenoyl]-9-[4-(trifluoromethyl)phenyl]-2,3,3a,4,9,9a-hexahydro-1H-benzo[f]isoindole-3a-carboxylate] | 0.273 µM |  |
| C=C(C(=O)N1C[C@@H]2[C@]3(c4ccc5c(c4)OCCO5)CC[C@@H](c4ccccc43)[C@]2(C(=O)O)C1)c1ccccc1OC (racemic) [Example 32, (3aRS,4SR,9SR,9aRS)-9-(2,3-dihydro-1,4-benzodioxin-6-yl)-4,9-ethano-2-[2-(2-methoxyphenyl)-propenoyl]-2,3,3a,4,9,9a-hexahydro-1H-benzo[f]isoindole-3a-carboxylic Acid] | 0.106 µM |  |
| C=C(C(=O)N1C[C@@H]2[C@]3(c4cccc(F)c4)CC[C@@H](c4ccccc43)[C@]2(C(=O)O)C1)c1ccccc1OC (racemic) [Example 86, (3aRS,4SR,9SR,9aRS)-4,9-ethano-9-(3-fluorophenyl)-2-[2-(2-methoxyphenyl)propenoyl]-2,3,3a,4,9,9a-hexahydro-1H-benzo[f]isoindole-3a-carboxylic Acid] | 0.005 µM |  |
| C=C(C(=O)N1C[C@H]2[C@@]3(c4ccc(C)s4)CC[C@@H](c4ccccc43)[C@]2(C(=O)OC)C1)c1ccccc1OC (racemic) [Example 47, methyl (3aRS,4SR,9SR,9aRS)-4,9-ethano-2-[2-(2-methoxyphenyl)propenoyl]-9-(5-methyl-2-thienyl)-2,3,3a,4,9,9a-hexahydro-1H-benzo[f]isoindole-3a-carboxylate] | 0.207 µM |  |

— US6218406A, “Farnesyl transferase inhibitors, their preparation, the pharmaceutical compositions which contain them and their use in the preparation of medicaments” (Aventis Pharma S.A., priority 1996, dated 2001)
